From US20050112573A1, “Method of detecting toxic substance” (priority 2001, published 2005)

Test system: yeast genes (level of expressed mRNA)
Assay: DNA chip analysis of expressed mRNA of yeast genes after 2 h culture with a toxic chemical substance
Format: cell-based, Saccharomyces cerevisiae S288C
Settings: for The level of expressed mRNA in the presence of chemical substance/ (ratio to absence of chemical substance): stress protein genes, DNA chip
Procedure, shortened: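 Values are treated-to-control fluorescence ratios from a whole-yeast-genome DNA chip (65° C, over 12 h hybridization) using Cy3/Cy5-labelled cDNA from mRNA. Log-phase S288C cells in YPD at 25° C were exposed 2 h to a toxicant at sublethal, growth-inhibiting concentration.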

## S=C([S-])NCCNC(=S)[S-].[Zn+2] [(11), zinc N,N′-ethylenebis(dithiocarbamate)]
Gene YOR253W
  The level of expressed mRNA in the presence of chemical substance/absence: YOR253W: 0.9
Gene YOR267C
  The level of expressed mRNA in the presence of chemical substance/absence: YOR267C: 0.4
Gene YOR325W
  The level of expressed mRNA in the presence of chemical substance/absence: YOR325W: 0.6
Gene YOR336W
  level of expressed mRNA in the presence of chemical substance/in its absence: 1.4
Gene YOR344C
  level of expressed mRNA in the presence of chemical substance/in its absence: 0.6
Gene YOR347C
  level of expressed mRNA in the presence of chemical substance/in its absence: 1.4
Gene YPL005W
  The level of expressed mRNA in the presence of chemical substance/absence: YPL005W: 1.1
Gene YPL017C
  level of expressed mRNA in the presence of chemical substance/in its absence: 0.4
Gene YPL107W, DNA chip fluorescence ratio to control without chemical, 2 hours culture with chemical, growth-inhibiting non-lethal concentration
  The level of expressed mRNA in the presence of chemical substance / the level in the absence of chemical substance, yeast gene YPL107W: 1.1
Gene YPL138C, DNA chip fluorescence ratio to control without chemical, 2 hours culture with chemical, growth-inhibiting non-lethal concentration
  The level of expressed mRNA in the presence of chemical substance / the level in the absence of chemical substance, yeast gene YPL138C: 0.5
Gene YPL150W
  The level of expressed mRNA in the presence of chemical substance/absence: YPL150W: 1.1
Gene YPL151C
  The level of expressed mRNA in the presence of chemical substance/absence: YPL151C: 0.9
Gene YPL152W
  The level of expressed mRNA in the presence of chemical substance/absence: YPL152W: 1.4
Gene YPL168W
  The level of expressed mRNA in the presence of chemical substance/absence: YPL168W: 0.7
Gene YPL180W
  The level of expressed mRNA in the presence of chemical substance/absence: YPL180W: 1.0
Gene YPL188W
  The level of expressed mRNA in the presence of chemical substance/absence: YPL188W: 1.0
Gene YPL221W
  The level of expressed mRNA in the presence of chemical substance/absence: YPL221W: 1.0
Gene YPL225W
  The level of expressed mRNA in the presence of chemical substance/absence: YPL225W: 0.9
Gene YPL249C
  The level of expressed mRNA in the presence of chemical substance/absence: YPL249C: 0.9
Gene YPL260W
  The level of expressed mRNA in the presence of chemical substance/absence: YPL260W: 1.0
Gene YPL265W
  level of expressed mRNA in the presence of chemical substance/in its absence: 1.8
Gene YPR006C
  level of expressed mRNA in the presence of chemical substance/in its absence: 2.4
Gene YPR026W
  level of expressed mRNA in the presence of chemical substance/in its absence: 1.6
Gene YPR049C
  The level of expressed mRNA in the presence of chemical substance/absence: YPR049C: 0.9
Gene YPR061C
  The level of expressed mRNA in the presence of chemical substance/absence: YPR061C: 1.6
Gene YPR093C
  The level of expressed mRNA in the presence of chemical substance/absence: YPR093C: 1.2
Gene YPR146C
  The level of expressed mRNA in the presence of chemical substance/absence: YPR146C: 1.4
Gene YPR148C
  The level of expressed mRNA in the presence of chemical substance/absence: YPR148C: 0.9
Gene YPR150W
  The level of expressed mRNA in the presence of chemical substance/absence: YPR150W: 0.9
Gene YPR158W
  The level of expressed mRNA in the presence of chemical substance/absence: YPR158W: 1.5
Gene YPR169W
  The level of expressed mRNA in the presence of chemical substance/absence: YPR169W: 1.0
Gene YPR172W
  The level of expressed mRNA in the presence of chemical substance/absence: YPR172W: 1.9
Gene YPR174C
  The level of expressed mRNA in the presence of chemical substance/absence: YPR174C: 0.7
Yeast gene YAR010C
  The level of expressed mRNA in the presence of chemical substance/The level of expressed mRNA in the absence of chemical substance: 0.9
Yeast gene YBL005W-A
  The level of expressed mRNA in the presence of chemical substance/The level of expressed mRNA in the absence of chemical substance: 0.8
Yeast gene YBL038W, mitochondria-located protein genes, 2 h culture with chemical
  The level of expressed mRNA in the presence of chemical substance/ (ratio to absence), gene YBL038W: 0.7
Yeast gene YBL041W
  The level of expressed mRNA in the presence of chemical substance/The level of expressed mRNA in the absence of chemical substance: 1.6
Yeast gene YBL043W
  The level of expressed mRNA in the presence of chemical substance/The level of expressed mRNA in the absence of chemical substance: 1.5
Yeast gene YBL078C
  The level of expressed mRNA in the presence of chemical substance/The level of expressed mRNA in the absence of chemical substance: 4.6
Yeast gene YBL093C
  The level of expressed mRNA in the presence of chemical substance/ (ratio to absence of chemical substance): 1.3
Yeast gene YBR036C, ratio of DNA chip fluorescence intensity to that without chemical substance
  The level of expressed mRNA in the presence of chemical substance/ (in its absence), gene YBR036C: 1.5
Yeast gene YBR044C
  The level of expressed mRNA in the presence of chemical substance/ (ratio to absence of chemical substance): 1.1
Yeast gene YBR122C, mitochondria-located protein genes, 2 h culture with chemical
  The level of expressed mRNA in the presence of chemical substance/ (ratio to absence), gene YBR122C: 1.2
Yeast gene YBR214W
  The level of expressed mRNA in the presence of chemical substance/The level of expressed mRNA in the absence of chemical substance: 3.2
Yeast gene YBR251W, mitochondria-located protein genes, 2 h culture with chemical
  The level of expressed mRNA in the presence of chemical substance/ (ratio to absence), gene YBR251W: 1.5
Yeast gene YBR298C, ratio of DNA chip fluorescence intensity to that without chemical substance
  The level of expressed mRNA in the presence of chemical substance/ (in its absence), gene YBR298C: 1.5
Yeast gene YCL020W
  The level of expressed mRNA in the presence of chemical substance/The level of expressed mRNA in the absence of chemical substance: 1.3
Yeast gene YCL027W
  The level of expressed mRNA in the presence of chemical substance/The level of expressed mRNA in the absence of chemical substance: 0.9
Yeast gene YCR004C
  The level of expressed mRNA in the presence of chemical substance/The level of expressed mRNA in the absence of chemical substance: 1.9
Yeast gene YCR046C, mitochondria-located protein genes, 2 h culture with chemical
  The level of expressed mRNA in the presence of chemical substance/ (ratio to absence), gene YCR046C: 1.5
Yeast gene YCR071C
  The level of expressed mRNA in the presence of chemical substance/The level of expressed mRNA in the absence of chemical substance: 1.1
Yeast gene YCR083W, mitochondria-located protein genes, 2 h culture with chemical
  The level of expressed mRNA in the presence of chemical substance/ (ratio to absence), gene YCR083W: 1.8
Yeast gene YCR083W
  The level of expressed mRNA in the presence of chemical substance/ (ratio to absence of chemical substance): 1.8
Yeast gene YCR088W
  The level of expressed mRNA in the presence of chemical substance/The level of expressed mRNA in the absence of chemical substance: 1.0
Yeast gene YDL008W
  The level of expressed mRNA in the presence of chemical substance/The level of expressed mRNA in the absence of chemical substance: 0.9
Yeast gene YDL067C, energy system protein genes, 2 h culture with the chemical, ratio to control without chemical
  The level of expressed mRNA in the presence of chemical substance/ in its absence, gene YDL067C: 1.4
Yeast gene YDL067C, mitochondria-located protein genes, 2 h culture with chemical
  The level of expressed mRNA in the presence of chemical substance/ (ratio to absence), gene YDL067C: 1.4
